In patent US12281143B1, “Insect neuropeptides 1” (Solasta Bio Limited, priority 2023, dated 2025):
Read-outs that look alike come from different tables or passages of the source. Where a SMILES comes first, the peptide text is derived from it.

Tests used:
Myzus persicae = settings: unformulated peptide; leaf dip; mortality assessed at 72, 96 and 120 hours; compared to vehicle and Spirotetramat (FIGS. 6 and 7)
Method: Dip a 2.5 cm leaf disc into 3 ml of treatment solution allowing the treatment to coat the leaf. Leave the disc to dry for 1 hour and place onto the set agar. Place insects (aphids) onto each of the leaf discs. Each unit is sealed with a close-fitting, ventilated lid. Place the agar dishes in a small plastic tray lined with moist tissue paper and ensure the water trays in the bottom of the incubator are filled with clean water and place within the incubator. An assessment of mortality is made at 72, 96 and 120 hours. Leaf dip assays were performed with unformulated SB—P-46, and compared to a negative control vehicle and a current commercial insecticide Spirotetramat.

Bumblebee = assay: Bee oral toxicity test adapted from OECD Test No. 247 (Bumblebee, Acute Oral Toxicity Test); format: in vivo; settings: after 96 hours of application, compared to Imidacloprid (FIG. 10)
Method: Bee oral testing protocol was carried out adapted from OECD Test No. 247: Bumblebee, Acute Oral Toxicity Test. The toxicity of SB—P-46 was compared with a negative control of sucrose or vehicle, and with a current commercial insecticide Imidacloprid.

Aphis gossypii = settings: Greece; cotton; unformulated; counted 3 days following application (FIG. 14)
Text: (§1) The data has been processed in the ARM Field Trials software under license.
AgriScience conducted a field trial in Greece, investigating the efficacy of insecticidal peptides on aphids on cotton crop.

Aphis fabae = settings: unformulated; for reduction in Aphis fabae numbers as a percentage of untreated control crop: vining peas
Text: as §1

[1] = system: Amrasca biguttula (leaf hopper); settings: unformulated; 3 and 7 days after application (FIG. 16)
Text: as §1

With `CC(C)C[C@H](NC(=O)[C@H](CCCNC(=N)N)NC(=O)[C@@H]1CCCN1C(=O)[C@H](CO)NC(=O)[C@H](Cc1ccccc1)NC(=O)[C@@H]1CCCN1C(=O)[C@@H]1CCCN1C(=O)[C@H](CO)NC(=O)[C@H](Cc1ccc(O)cc1)NC(=O)[C@@H]1CCCN1C(=O)[C@@H]1CCCN1C(=O)[C@@H](N)CO)C(N)=O` [SB—P-46, [Hy]-SPPYSPPFSPRL-[NH2]] (H-SPPYSPPFSPRL-NH2) the “activity against Myzus persicae (mortality)” value (Myzus persicae) was “good activity”, the “toxicity to bees (% survival)” value (Bumblebee) was “far lower toxicity” and the “reduction in Aphis gossypii numbers as a percentage of untreated control crop” value (Aphis gossypii) was “close efficacy to the conventional pesticide equivalent tested”. For the same compound, the “reduction in Aphis fabae numbers as a percentage of untreated control crop” value (Aphis fabae; Field trial 1, Chatteris location, counted 14 days following application (FIG. 11)) was “performed comparably to the conventional insecticides Stealth and Teppeki”, the “reduction in Aphis fabae numbers as a percentage of untreated control crop” value (Aphis fabae; Wigtoft location, counted 4 days following application (FIG. 12)) was “similarly efficacious activity” and the “activity against naturally infested Aphis fabae” value (Aphis fabae; further field trials, 4 and 8 days after application (FIG. 15)) was “acted comparably to Hallmark Zeon insecticide”. For the same compound, the “reduction in Aphis fabae numbers as a percentage of untreated control crop” value (Aphis fabae; third PGRO trial (slot trial), Holbeach location, counted 7 days following application, low aphid infestation (FIG. 13)) was “performed as efficaciously as the conventional pesticides tested” and the “activity against naturally infested Amrasca biguttula (leaf hopper)” value [1] was “acted comparably to Flipper insecticide”.
